In article PMC8494816 (Scientific Reports, 2021):

Legend:
[1] = tested on: patients with RUCC; settings: cited from earlier work; for efficacy in treating RUCC patients: phase IIa setting
[2] = target: P2X2/3 heterotrimeric receptors; set-up: method as in PMID 30902655; settings: cited from earlier work
[3] = tested on: animal models; set-up: method as in PMID 30902655; settings: cited from earlier work
[4] = target: P2X3 homotrimeric receptors; set-up: method as in PMID 30902655; settings: cited from earlier work
[5] = target: T1, rP2X3 receptors (Rattus norvegicus, UniProt P49654); assay: cell-based
T1 sequence (P49654 1-397): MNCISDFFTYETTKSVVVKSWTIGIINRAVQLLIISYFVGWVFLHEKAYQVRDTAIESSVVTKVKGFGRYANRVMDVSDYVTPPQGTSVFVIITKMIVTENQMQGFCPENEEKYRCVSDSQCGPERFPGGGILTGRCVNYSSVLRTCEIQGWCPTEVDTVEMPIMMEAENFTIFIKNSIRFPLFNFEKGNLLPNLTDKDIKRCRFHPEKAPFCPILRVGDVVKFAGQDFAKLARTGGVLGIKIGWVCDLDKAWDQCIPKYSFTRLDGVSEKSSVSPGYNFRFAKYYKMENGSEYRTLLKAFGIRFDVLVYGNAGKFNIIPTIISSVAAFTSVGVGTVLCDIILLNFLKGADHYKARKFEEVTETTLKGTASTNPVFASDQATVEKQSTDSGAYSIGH
Description: (§1) Cells were maintained in Dulbecco’s Modified Eagle Medium (DMEM) media (Sigma) supplemented with 10% fetal bovine serum (FBS) (Sigma) in a humidified incubator with 5% CO2 at 37 °C.
(§2) P2X receptor-induced changes in intracellular calcium levels were monitored using the calcium-chelating dye, Fluo-4AM (Molecular Probes), quantitated with a fluorescence imaging plate reader (FLEX/FLIPR station; Molecular Devices, Sunnyvale, CA, USA). Cells expressing P2X3 or P2X2/3 receptors were plated at a density of 15,000 cells/well in collagen-coated 384-well plates approximately 20 h before assay.

[6] = target: T2, homotrimeric hP2X7 receptor (Homo sapiens, UniProt Q99572); assay: Recombinant cell line selectivity assay
T2 sequence (Q99572 1-595): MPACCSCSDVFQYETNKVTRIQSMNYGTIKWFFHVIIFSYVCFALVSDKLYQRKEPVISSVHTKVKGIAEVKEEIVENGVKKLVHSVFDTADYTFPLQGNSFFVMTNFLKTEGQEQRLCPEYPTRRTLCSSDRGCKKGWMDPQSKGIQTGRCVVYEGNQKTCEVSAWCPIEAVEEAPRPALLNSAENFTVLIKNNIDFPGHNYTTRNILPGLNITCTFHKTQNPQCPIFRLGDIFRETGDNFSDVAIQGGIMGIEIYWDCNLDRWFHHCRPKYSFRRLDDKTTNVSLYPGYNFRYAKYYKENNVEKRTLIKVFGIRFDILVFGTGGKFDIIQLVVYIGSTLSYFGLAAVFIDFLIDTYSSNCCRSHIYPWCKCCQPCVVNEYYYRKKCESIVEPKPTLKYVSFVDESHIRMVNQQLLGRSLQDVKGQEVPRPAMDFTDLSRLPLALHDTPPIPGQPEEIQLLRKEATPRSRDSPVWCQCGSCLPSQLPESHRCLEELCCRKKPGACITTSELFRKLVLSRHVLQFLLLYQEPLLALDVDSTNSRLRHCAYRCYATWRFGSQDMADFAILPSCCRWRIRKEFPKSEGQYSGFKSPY

[7] = tested on: CFA-induced hyperalgesia in female C57BL/6 mice; assay: Mouse CFA-induced mechanical hyperalgesia model (von Frey); settings: oral twice daily, 48 h after CFA
Description: In this model, mechanical hyperalgesia was induced in female C57BL/6 mice (n = 9) by injecting CFA into the plantar surface of one hind paw and assessed using von Frey filaments. The filaments were used to stimulate the hind paw, and a behavioral response was measured depending on the strength of the von Frey filament used (expressed in [g]). […] Compounds were administered orally, twice daily, starting one hour before CFA injection. […] Mechanical hyperalgesia was induced in female C57BL/6 mice by injecting 30 µL of undiluted CFA into the medial left plantar hind paw. […] Mice were placed individually in transparent Plexiglas enclosures set on a wire mesh floor for at least 60 min prior to testing. Mechanical response thresholds were determined using calibrated von Frey monofilaments applied to the plantar surface of hind paws. The simplified up-down method[69] was used to estimate the 50% withdrawal threshold of contralateral and ipsilateral paws. […] All dose formulations were letter coded and administered to the animals by a technician not involved in conducting the behavioral von Frey testing. All von Frey measurements were performed by a second experimenter who was blinded to the treatments received by the animals. Upon completion of the experiments, mice were euthanized by exposure to carbon dioxide.

[8] = tested on: neurogenic plasma extravasation in female Sprague Dawley rats; assay: Rat model of uterine neurogenic inflammation (mustard oil, Evans blue); type: in vivo; settings: i.v. bolus 0.7 mg/kg then infusion 0.2 mg/kg/h, vs vehicle, P < 0.01
Description: In this model, neurogenic inflammation was induced in anesthetized female Sprague Dawley rats by injecting mustard oil, an algogenic and sensitizing irritant, into the left uterine horn. Uterine inflammation leads to neurogenic plasma extravasation in the skin of the lower abdomen, which can be visualized via the injection of Evans blue dye[17]; the degree of inflammation can then be quantified by counting the number of blue dots.
Mustard oil (10% solution in mineral oil) was then injected into the left uterine horn (0.25 mL/rat), and 2-h later, Evans blue was injected intravenously. After 30 min, animals were killed by cardiac flushing with sterile saline. Uterine neurogenic inflammation was assessed by counting the number of blue dots on the ventral and dorsal sides in the abdominal region as an indicator of cutaneous neurogenic plasma extravasation following chemical uterine inflammation, as previously described[17].
All data are expressed as mean (or mean ± SD), unless otherwise indicated. Data were analyzed with either GraphPad Prism (v6.03, https://www.graphpad.com/scientific-software/prism/) or the Excel Fit software. […] For the rat neurogenic inflammation and dyspareunia models, data were analyzed by computing the mean number of skin dots or AUCs, respectively, for each treatment group and at each time point of the study (where appropriate). […]

[9] = target: T3, hP2X1 receptors (Homo sapiens, UniProt P51575); assay: Recombinant cell line selectivity assay
T3 sequence (P51575 1-399): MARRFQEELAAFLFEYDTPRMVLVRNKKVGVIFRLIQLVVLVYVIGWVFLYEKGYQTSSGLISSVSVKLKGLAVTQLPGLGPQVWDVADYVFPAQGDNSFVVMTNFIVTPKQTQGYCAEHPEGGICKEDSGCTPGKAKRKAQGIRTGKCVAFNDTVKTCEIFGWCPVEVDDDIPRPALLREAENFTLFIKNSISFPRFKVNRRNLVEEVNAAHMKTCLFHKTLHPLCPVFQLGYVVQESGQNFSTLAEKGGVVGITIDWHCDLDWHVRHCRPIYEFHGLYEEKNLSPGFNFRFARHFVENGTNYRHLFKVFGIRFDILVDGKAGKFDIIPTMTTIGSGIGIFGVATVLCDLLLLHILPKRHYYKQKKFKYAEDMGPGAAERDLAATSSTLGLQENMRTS

[10] = tested on: CFA-induced mechanical hyperalgesia in male Sprague Dawley rats; assay: Rat CFA-induced mechanical hyperalgesia model (PAM, paw withdrawal threshold)
Description: Mechanical hyperalgesia was induced in 32 healthy male Sprague Dawley rats by injecting 25 µL of CFA (1 mg/mL) unilateral into the plantar surface of one hind paw. Mechanical hyperalgesia was measured using the Pressure Application Measurement apparatus (Ugo Basile, Comerio, Italy). Briefly, a linearly increasing pressure was applied to an area of ~ 50 mm^2 of the plantar side of the hind paw until a behavioral response (paw withdrawal) was observed, or until the pressure reached 1000-g force. The pressure at which the behavioral response occurred was recorded as the PWT. Both CFA-injected and contralateral PWTs were determined for each rat, in each treatment group, and at each time point of the study. […] All dose formulations were letter coded and administered to the animals by one technician not involved in conducting the behavioral PAM testing. All PAM measurements were performed by a second technician who was blinded to the treatments received by the animals.
All data are expressed as mean (or mean ± SD), unless otherwise indicated. Data were analyzed with either GraphPad Prism (v6.03, https://www.graphpad.com/scientific-software/prism/) or the Excel Fit software. For the rat hyperalgesia model, data were analyzed by computing the mean PWT for each treatment group, for CFA-injected and non-injected hind paws, and at each time point of the study. Mechanical hyperalgesia in vehicle control group was evaluated by carrying out an unpaired t-test between ipsilateral and contralateral paw values at each time point. The effect of the test compound on hyperalgesia was evaluated by performing a two-way repeated measures-ANOVA on ipsilateral paw values, followed by a Dunnett’s post-hoc test, provided that a main effect for treatment was detected. The effect of the test compound on contralateral response was evaluated following the same statistical procedure. […] A Grubbs’ test was also performed on individual values to reveal potential outliers. A p-value of < 0.05 was considered statistically significant.

[11] = target: T4, native channels from DRG (predominately P2X3 receptors) (Rattus norvegicus, UniProt P49654); assay: Whole-cell patch-clamp assay in rat neurons (DRG); type: cell-based; settings: female Sprague Dawley rat neurons, α,β-meATP 10 µM
T4 construct: native channels from both DRG (predominately P2X3 receptors) and nodose ganglia (NDG, predominately P2X2/3 receptors) rat tissues; from tissue; host or cells: primary neurons from dorsal root ganglia (L6–L4) of female Sprague Dawley rats
T4 sequence (P49654 1-397): T1 sequence (P49654 1-397)
Description: Experiments were performed under the whole-cell patch-clamp configuration at a holding potential of – 80 mV at room temperature. […] The cells were dissociated with Accumax, centrifuged at 1000 rpm for 3 min, re-suspended in manual patch-clamp buffer, and then plated in dishes at a density of ~ 50,000 cells/dish. The currents were recorded using HEKA amplifiers and Patchmaster software (HEKA Electronics). The bath solution contained 140 mM NaCl, 5 mM KCl, 1 mM CaCl2, 2 mM MgCl2, 25 mM HEPES, and 10 mM glucose, at pH 7.4. The intracellular solution contained 140 mM CsCl, 10 mM HEPES, and 10 mM BAPTA, at pH 7.0. […] The recordings were performed in a cumulative manner with 4- or 8-min incubation times per compound concentration. Hexokinase (50 U/mL) was added to reduce channel desensitization when recording human and rat P2X3 receptor neurons. A seal resistance of minimum 250 MΩ and a series resistance of less than 20 MΩ were applied as quality control parameters. The effect at each concentration of antagonist was determined according to the following equation: % response = (100 * Idrug)/Icontrol), where Icontrol was the peak current amplitude of the last agonist addition prior to incubation with the antagonist, and Idrug was the peak current amplitude in the presence of an antagonist. Each concentration of antagonist was tested on a minimum of three independent cells. […]

[12] = target: T5, rP2X2/3 receptors (Rattus norvegicus, UniProt P49653+P49654); assay: FLIPR calcium flux assay, recombinant cells; type: cell-based
T5 sequence (P49654 1-397): T1 sequence (P49654 1-397)
T5 sequence (P49653 1-472): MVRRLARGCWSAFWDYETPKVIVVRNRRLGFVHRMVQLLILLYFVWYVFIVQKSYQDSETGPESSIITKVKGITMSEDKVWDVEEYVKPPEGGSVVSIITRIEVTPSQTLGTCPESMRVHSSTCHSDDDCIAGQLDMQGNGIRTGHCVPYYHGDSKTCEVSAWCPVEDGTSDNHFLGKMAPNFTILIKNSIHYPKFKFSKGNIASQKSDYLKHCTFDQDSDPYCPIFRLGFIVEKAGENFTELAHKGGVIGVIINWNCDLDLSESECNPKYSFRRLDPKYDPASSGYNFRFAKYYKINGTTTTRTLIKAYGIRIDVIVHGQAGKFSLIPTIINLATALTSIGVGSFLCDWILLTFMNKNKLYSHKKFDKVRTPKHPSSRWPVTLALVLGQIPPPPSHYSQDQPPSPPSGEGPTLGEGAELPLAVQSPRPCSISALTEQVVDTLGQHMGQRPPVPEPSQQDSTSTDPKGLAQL
Description: as §1, §2

[13] = tested on: vaginal hyperalgesia in female Sprague Dawley rats; assay: Rat dyspareunia model (VMR to vaginal distension); settings: vs vehicle
Description: The visceromotor response (VMR) to vaginal distension using an inflated vaginal balloon was determined by counting the number of abdominal muscle contractions via electromyography (EMG) in conscious animals as an objective measure of vaginal sensitivity. […] The VMR response to vaginal distension was measured at week five (on-drug) and week six (one week off-drug) post-implantation of uterine horn pieces.
The VMR to vaginal distension was used in conscious animals as an objective measure of vaginal sensitivity. […] In addition, to measure the VMR response, two Teflon-coated wire electrodes (AS632; Cooner Wire, USA) were sutured in the external oblique abdominal muscle, and then tunneled subcutaneously to be exteriorized at the base of the neck for future access. […] On the day of VMR assessment, a lubricated small balloon (embolectomy catheter 5F, 1 cm in length; IsoMed, France) was inserted into the mid-vaginal canal. […] The magnitude of the VMR at each vaginal distension test was quantified by counting manually the number of EMG spike bursts (or abdominal muscle contractions) per period of 40 s (= 0.1 mL distension volume). […] For each animal, the cumulative number of abdominal contractions was calculated and plotted against vaginal distension volume, and the corresponding AUC was calculated. […]
All data are expressed as mean (or mean ± SD), unless otherwise indicated.

[14] = Half-life in rats; settings: rat, in vivo; data not shown
[15] = Half-life in humans; settings: human, in vivo; data not shown
[16] = target: T6, homotrimeric hP2X4 receptor (Homo sapiens, UniProt Q99571); assay: Recombinant cell line selectivity assay
T6 sequence (Q99571 1-388): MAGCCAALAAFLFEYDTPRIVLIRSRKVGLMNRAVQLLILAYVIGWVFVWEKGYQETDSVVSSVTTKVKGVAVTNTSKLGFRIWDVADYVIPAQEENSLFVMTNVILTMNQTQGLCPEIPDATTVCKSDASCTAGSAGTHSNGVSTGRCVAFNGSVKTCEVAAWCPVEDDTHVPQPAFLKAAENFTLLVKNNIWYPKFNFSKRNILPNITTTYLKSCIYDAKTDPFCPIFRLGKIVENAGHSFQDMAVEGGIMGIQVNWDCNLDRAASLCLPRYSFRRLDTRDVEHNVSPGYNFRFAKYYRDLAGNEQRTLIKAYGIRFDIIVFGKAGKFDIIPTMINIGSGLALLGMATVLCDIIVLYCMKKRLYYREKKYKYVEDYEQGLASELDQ

CNC(=O)c1cc(F)c(-c2nc3cc(C)ccn3c2C[C@H]2CN(C(=O)OC)CCO2)c(F)c1 [BLU-5937]
primary endpoint in phase IIa study ([1]; subjects with RUCC): did not reach its desired primary endpoint | IC50 [2]: > 24000 nM | antitussive efficacy and taste disturbances in animal models [3]: antitussive efficacy with a lack of taste disturbances | IC50 [4]: 25 nM

C[C@@H](Cn1c(=O)[nH]/c(=N\c2ccc(Oc3ccccn3)cc2)n(Cc2ccc(Cl)cc2)c1=O)C(=O)O [S-600918]
cough reduction and taste disturbance ([1]; patients with RUCC (n = 31)): reduce cough with a low incidence of taste disturbance | efficacy in treating RUCC patients [1]: shown efficacy

Cc1cnc(-c2cc(O[C@@H]3CCOC3)cc(C(=O)N[C@H](C)c3cnc(C(F)(F)F)nc3)c2)s1 [eliapixant]
IC50 [5]: 4 nM | tolerability and taste-related adverse events ([1]; phase IIa and Ph IIb study in patients with RUCC): well tolerated with a low rate of mild taste-related adverse events | efficacy in treating RUCC patients [1]: shown efficacy | IC50 [6]: 50000 nM | minimal effective oral dose, reversal of hyperalgesia in CFA-injected paw [7]: 5 mg/kg | number of blue dots on the skin (neurogenic plasma extravasation) [8]: significantly reduced number of blue dots on the skin | IC50 [9]: 50000 nM | receptor occupancy corresponding to plasma exposures at which efficacy (reversal of hyperalgesia > 50%) was observed ([10]; rat CFA model, data not shown): 80% | effect on mechanical hyperalgesia (PWT), low dose ([10]; rat, oral 1 mg/kg, n = 8, P < 0.05): moderate and statistically significant at 2 h post-treatment | effect on mechanical hyperalgesia (PWT), medium dose ([10]; rat, oral 3 mg/kg, n = 8, 2, 4, 6 h, P < 0.05 to 0.0001): robust and significant at each time point of the study | effect on mechanical hyperalgesia (PWT), high dose ([10]; rat, oral 10 mg/kg, n = 8, 2, 4, 6 h, P < 0.05 to 0.0001): robust and significant at each time point of the study | effect on mechanical hyperalgesia (Paw Withdrawal Threshold) ([10]; rat, oral, 1, 3, 10 mg/kg, 24 h after CFA, 2, 4, 6 h post-dose): significantly reduced mechanical hyperalgesia in a dose-dependent manner | IC50 [11]: ~19 nM | IC50 [12]: 23 nM | vaginal hyperalgesia (AUC of cumulative abdominal contractions), 1 week off drug ([13]; 15 mg/kg oral twice daily weeks 4-5, 6 weeks post-implantation, P < 0.01): significantly decreased vaginal hyperalgesia | vaginal hyperalgesia (AUC of cumulative abdominal contractions), on drug ([13]; 15 mg/kg oral twice daily, 5 weeks post-implantation, P < 0.05): significantly decreased vaginal hyperalgesia | half-life [14]: ~2.8 h | half-life [15]: > 24 h | IC50 [16]: 50000 nM

COc1cc(C(C)C)c(Oc2cnc(N)nc2N)cc1S(N)(=O)=O [gefapixant]
taste-related AEs, participants ([1]; latest phase III data, RUCC): 58–69%
